According to patent US20240374726A1, “BAG6 SPECIFIC CHIMERIC ANTIGEN RECEPTOR, NUCLEIC ACID, BAG6 SPECIFIC CHIMERIC ANTIGEN RECEPTOR EXPRESSION PLASMID, BAG6 SPECIFIC CHIMERIC ANTIGEN RECEPTOR EXPRESSING CELL, USE THEREOF, AND PHARMACEUTICAL COMPOSITION FOR TREATING CANCER” (China Medical University Hospital, priority 2023, published 2024):
“And” between values parts separate entries of the source, which are not always exact repeats. Equal entries are not always repeated.

Columns and labels:
Format in all cases: cell-based
[1] = tested on: human malignant brain tumor cell line DBTRG; assay: tumor cell death, Annexin V-FITC/PI flow cytometry (cytotoxicity); details: group 1: chemotherapy drug alone, temozolomide 80 μg/mL, three independent trials
Method: The cells were subsequently incubated for 48 hours. Each type of the tumor cells was divided into six groups. In a control, the tumor cells were untreated. In a group 1, the tumor cells were treated with the chemotherapy drug. In a group 2, the tumor cells were treated with the parental primary T lymphocyte. In a group 3, the tumor cells are treated with the parental primary T lymphocyte and the chemotherapy drug. In a group 4, the tumor cells were treated with Example 1. In a group 5, the tumor cells were treated with Example 1 and the chemotherapy drug. […] In the group 4 and the group 5, the number of Example 1 treated was 1×10^5 cells. […] The treated cells of each group were stained with Annexin V-FITC and propidium iodide (PI), and the apoptosis and the death of the tumor cells were detected by the flow cytometry. The sum of the percentage of cells stained with Annexin V-FITC and/or PI were calculated to obtain the cytotoxicity. The results of the cytotoxicity were counted after three independent trials in each group.
The cells were subsequently incubated for 48 hours. […] The treated cells of each group were stained with Annexin V-FITC and PI, and the apoptosis and the death of the tumor cells were detected by the flow cytometry. The sum of the percentage of cells stained with Annexin V-FITC and/or PI were calculated to obtain the cytotoxicity. […]

[2] = tested on: BAG6 on the plasma membrane of the human breast cancer cell line MDA-MB-231; assay: expression level of BAG6, immunofluorescence staining and flow cytometry; details: doxorubicin 200 nM, 48 hours, versus untreated control
Method: (§1) To explore whether treatment with the chemotherapy drug affects the expression of BAG6, HLA-G and B7-H6 on the cell membrane of tumor cells, the tumor cells used were human breast cancer cell line MDA-MB-231, human malignant brain tumor cell line DBTRG-05MG (hereinafter referred to as DBTRG), human pancreatic cancer cell line AsPC-1, and human ovarian cancer cell line SKOV3. The tumor cells used were all purchased from the American Type Culture Collection (ATCC). The human breast cancer cell line MDA-MB-231 is a triple-negative breast cancer cell line, that is, the hormone receptor (ER, PR) and HER-2 receptor thereof are negative, and the human breast cancer cell line MDA-MB-231 was cultured in RPMI culture medium including 10% fetal bovine serum (FBS). The human malignant brain tumor cell line DBTRG was cultured in DMEM culture medium including 10% FBS. The human pancreatic cancer cell line AsPC-1 was cultured in RPMI culture medium including 10% FBS. The human ovarian cancer cell line SKOV3 was cultured in McCoy's 5A culture medium including 10% FBS.

[3] = tested on: HLA-G on the plasma membrane of the human breast cancer cell line MDA-MB-231; assay: expression level of HLA-G, flow cytometry; details: doxorubicin 200 nM, 48 hours, versus untreated control
Method: as §1

[4] = tested on: B7-H6 on the plasma membrane of the human breast cancer cell line MDA-MB-231; assay: expression level of B7-H6, flow cytometry; details: doxorubicin 200 nM, 48 hours, versus untreated control
Method: as §1

[5] = tested on: BAG6 on the plasma membrane of the human ovarian cancer cell line SKOV3; assay: expression level of BAG6, immunofluorescence staining and flow cytometry; details: carboplatin 20 μM, 48 hours, versus untreated control
Method: as §1

[6] = tested on: HLA-G on the plasma membrane of the human ovarian cancer cell line SKOV3; assay: expression level of HLA-G, flow cytometry; details: carboplatin 20 μM, 48 hours, versus untreated control
Method: as §1

[7] = tested on: B7-H6 on the plasma membrane of the human ovarian cancer cell line SKOV3; assay: expression level of B7-H6, flow cytometry; details: carboplatin 20 μM, 48 hours, versus untreated control
Method: as §1

In the case of `Cn1nnc2c(C(N)=O)ncn2c1=O` [temozolomide], the death rate [1] is reported as 8.4033% and 14.9267% and 5.5450% and 11.7933% and 13.9750%.

With `COc1cccc2c1C(=O)c1c(O)c3c(c(O)c1C2=O)C[C@@](O)(C(=O)CO)C[C@@H]3O[C@H]1C[C@H](N)[C@H](O)[C@H](C)O1` [doxorubicin] the “expression of BAG6 on the plasma membrane” value [2] was “increase the expression of BAG6”, the “expression of HLA-G on the plasma membrane” value [3] was “increase the expression of HLA-G” and the “expression of B7-H6 on the plasma membrane” value [4] was “increase the expression of B7-H6”.

`N.N.O=C([O-])C1(C(=O)[O-])CCC1.[Pt+2]` [carboplatin] was tested, and the “expression of BAG6 on the plasma membrane” value [5] was “increase the expression of BAG6”, the “expression of HLA-G on the plasma membrane” value [6] was “increase the expression of HLA-G” and the “expression of B7-H6 on the plasma membrane” value [7] was “increase the expression of B7-H6”.
